Reference: US4518529A, “Antibiotics C-19393S2” (Takeda Chemical Industries, Ltd., priority 1979, dated 1985)
Converted amounts (≈) assume the structure as drawn. “Also recorded” adds a separate entry of the source. Structures can show the parent of a compound that is named as a salt. Where two headings read alike, the source gives them in different places.

Experiments:
Escherichia coli TN 659 = assay: Increasing effect on antimicrobial activity of ampicillin and cefotiam by C-19393S2, E. coli TN 659; format: cell-based; conditions: read-out: Minimum Inhibitory Concentration
From the text: (§1) *Clinically isolated strains having the ability to produce betalactamase
(§2) Medium: Heart Infusion Agar (Eiken Chemical Co., Japan)

[1] = test system: Klebsiella pneumoniae TN 1725; assay: Increasing effect on antimicrobial activity of ampicillin and cefotiam by C-19393S2, K. pneumoniae TN 1725; format: cell-based; conditions: read-out: Minimum Inhibitory Concentration
From the text: as §1, §2

Proteus vulgaris TN 224 = assay: Increasing effect on antimicrobial activity of ampicillin and cefotiam by C-19393S2, P. vulgaris TN 224; format: cell-based; conditions: read-out: Minimum Inhibitory Concentration
From the text: as §1, §2

[2] = test system: gram-positive and gram-negative bacteria; assay: Antimicrobial activity (in words); format: cell-based
Solubility = format: physicochemical
Stability = format: physicochemical
betalactamase = assay: Betalactamase inhibiting activity; format: biochemical
[3] = test system: various bacteria which exhibit resistance to penicillin derivatives and/or cephalosporin derivatives; assay: Sensitivity of resistant bacteria to penicillin and/or cephalosporin derivatives; format: cell-based; conditions: to penicillin derivatives and/or cephalosporin derivatives (ampicillin, cefotiam)
Escherichia coli NIHJ = assay: Antimicrobial spectrum, MIC on bouillon agar, E. coli NIHJ; format: cell-based; conditions: read-out: Minimum Inhibitory Concentration
From the text: (§3) The biological properties of C-19393S2 are described below. The antibiotic spectrum of C-19393S2 sodium salt against various microorganisms are shown below in Table 4.

[4] = test system: Salmonella typhimurium IFO 12529; assay: Antimicrobial spectrum, MIC on bouillon agar, S. typhimurium; format: cell-based; conditions: Salmonella enterica, read-out: Minimum Inhibitory Concentration
From the text: as §3

[5] = test system: Klebsiella pneumoniae IFO 3318; assay: Antimicrobial spectrum, MIC on bouillon agar, K. pneumoniae; format: cell-based; conditions: IFO3318, read-out: Minimum Inhibitory Concentration
From the text: as §3

[6] = test system: Proteus vulgaris IFO 3045; assay: Antimicrobial spectrum, MIC on bouillon agar, P. vulgaris; format: cell-based; conditions: IFO3045, read-out: Minimum Inhibitory Concentration
From the text: as §3

[7] = test system: Proteus mirabilis IFO 3845; assay: Antimicrobial spectrum, MIC on bouillon agar, P. mirabilis; format: cell-based; conditions: IFO3845, read-out: Minimum Inhibitory Concentration
From the text: as §3

[8] = test system: Serratia marcescens IFO 12648; assay: Antimicrobial spectrum, MIC on bouillon agar, S. marcescens; format: cell-based; conditions: IFO12648, read-out: Minimum Inhibitory Concentration
From the text: as §3

[9] = test system: Alcaligenes faecalis IFO 13111; assay: Antimicrobial spectrum, MIC on bouillon agar, A. faecalis; format: cell-based; conditions: IFO13111, read-out: Minimum Inhibitory Concentration
From the text: as §3

[10] = test system: Pseudomonas aeruginosa IFO 3080; assay: Antimicrobial spectrum, MIC on bouillon agar, P. aeruginosa; format: cell-based; conditions: IFO3080, read-out: Minimum Inhibitory Concentration
From the text: as §3

[11] = test system: Comamonas terrigena IFO 13299; assay: Antimicrobial spectrum, MIC on bouillon agar, C. terrigena; format: cell-based; conditions: IFO13299, read-out: Minimum Inhibitory Concentration
From the text: as §3

[12] = test system: Staphylococcus aureus 209P; assay: Antimicrobial spectrum, MIC on bouillon agar, S. aureus; format: cell-based; conditions: read-out: Minimum Inhibitory Concentration
From the text: as §3

Sarcina lutea IFO 3232 = assay: Antimicrobial spectrum, MIC on bouillon agar, S. lutea; format: cell-based; conditions: Micrococcus luteus, IFO3232, read-out: Minimum Inhibitory Concentration
From the text: as §3

[13] = test system: Bacillus subtilis IFO 3513; assay: Antimicrobial spectrum, MIC on bouillon agar, B. subtilis; format: cell-based; conditions: IFO3513, read-out: Minimum Inhibitory Concentration
From the text: as §3

Bacillus cereus IFO 3460 = assay: Antimicrobial spectrum, MIC on bouillon agar, B. cereus; format: cell-based; conditions: IFO3460, read-out: Minimum Inhibitory Concentration
From the text: as §3

[14] = Umezawa et al., The Journal of Antibiotics, Vol. 26, pages 51-54, 1973; cited from earlier work
[15] = TN659, Escherichia coli TN 659, C-19393S2 0, Heart Infusion Agar
[16] = TN659, Escherichia coli TN 659, with C-19393S2 1 μg/ml, Heart Infusion Agar
[17] = TN659, Escherichia coli TN 659, with C-19393S2 5 μg/ml, Heart Infusion Agar
[18] = TN1725, Klebsiella pneumoniae TN 1725, C-19393S2 0, Heart Infusion Agar
[19] = TN1725, Klebsiella pneumoniae TN 1725, with C-19393S2 1 μg/ml, Heart Infusion Agar
[20] = TN1725, Klebsiella pneumoniae TN 1725, with C-19393S2 5 μg/ml, Heart Infusion Agar
[21] = TN224, Proteus vulgaris TN 224, C-19393S2 0, Heart Infusion Agar
[22] = TN224, Proteus vulgaris TN 224, with C-19393S2 1 μg/ml, Heart Infusion Agar
[23] = TN224, Proteus vulgaris TN 224, with C-19393S2 5 μg/ml, Heart Infusion Agar
[24] = aqueous solution in a neutral pH region
[25] = comparison with MM-4550 (MC 696-SY2-A)

With `CC1(C)S[C@@H]2[C@H](NC(=O)[C@H](N)c3ccccc3)C(=O)N2[C@H]1C(=O)O` [Ampicillin] the MIC (Escherichia coli TN 659; [15]) was greater than 800 µg/mL, the MIC (Escherichia coli TN 659; [16]) was 3.13 µg/mL (≈ 8.96 µM) and the MIC (Escherichia coli TN 659; [17]) was no more than 0.003 µg/mL. It also gave an MIC [1, 18] of 800 µg/mL (≈ 2290 µM), an MIC [1, 19] of 50 µg/mL (≈ 143 µM) and an MIC [1, 20] of 0.78 µg/mL (≈ 2.23 µM). It also gave an MIC (Proteus vulgaris TN 224; [21]) of 400 µg/mL (≈ 1140 µM), an MIC (Proteus vulgaris TN 224; [22]) of 1.56 µg/mL (≈ 4.46 µM) and an MIC (Proteus vulgaris TN 224; [23]) of 1.56 µg/mL (≈ 4.46 µM).
For `CC(=O)N/C=C/[S+]([O-])C1=C(C(=O)O)N2C(=O)C(C(C)(C)O)C2C1` (stereo not shown) [Antibiotic C-19393H2], the antimicrobial activity [2] was “exhibits antibacterial activity against gram-positive and gram-negative bacteria; also recorded: has antimicrobial activity against gram-positive and gram-negative bacteria”, the Solubility (Solubility; water, listed as H2) was “water-soluble” and the Stability (Stability; [24]) was “stable”. For the same compound, the Stability (Stability; [25]) was “stable”.
With `CC(=O)N/C=C/[S+]([O-])C1=C(C(=O)O)N2C(=O)C(C(C)(C)OS(=O)(=O)O)C2C1` (stereo not shown) [Antibiotic C-19393S2] the antimicrobial activity [2] was “exhibits an antimicrobial activity against gram-positive and gram-negative bacteria”, the antimicrobial activity ([2]; listed as Antibiotic C-19393S2) was “active against gram-positive and gram-negative bacteria” and the betalactamase inhibiting activity (betalactamase) was “strong betalactamase inhibiting activity; also recorded: exhibits a beta-lactamase inhibiting activity”. The “increase of sensitivity of resistant bacteria” value [3] was “increases markedly the sensitivity; also recorded: markedly increases the sensitivity”, the Solubility (Solubility; water) was “water-soluble” and the Stability (Stability; [24]) was “stable”. The Stability (Stability; [25]) was “stable”.
In the case of `CC(=O)N/C=C/[S+]([O-])C1=C(C(=O)O)N2C(=O)C(C(C)(C)O)C2C1` (stereo not shown) [C-19393H2 sodium salt], the MIC (Escherichia coli NIHJ) is reported as 0.08 µg/mL, the MIC [4] is reported as 0.31 µg/mL and the MIC [5] is reported as 0.31 µg/mL. For the same compound, the MIC [6] was 5 µg/mL, the MIC [7] was 5 µg/mL and the MIC [8] was 0.31 µg/mL. For the same compound, the MIC [9] was 5 µg/mL, the MIC [10] was 10 µg/mL and the MIC [11] was 0.16 µg/mL. For the same compound, the MIC [12] was 0.63 µg/mL, the MIC (Sarcina lutea IFO 3232) was 0.31 µg/mL and the MIC [13] was 0.31 µg/mL. The MIC (Bacillus cereus IFO 3460) was 10 µg/mL, the Solubility (Solubility; acetone) was “sparingly soluble” and the Solubility (Solubility; butanol) was “sparingly soluble”. The Solubility (Solubility; chloroform) was “Insoluble”, the Solubility (Solubility; ethanol) was “sparingly soluble” and the Solubility (Solubility; ethyl acetate) was “Insoluble”. The Solubility (Solubility; methanol) was “soluble” and the Solubility (Solubility; water) was “soluble”.
With `CC(=O)N/C=C/[S+]([O-])C1=C(C(=O)O)N2C(=O)C(C(C)(C)OS(=O)(=O)O)C2C1` (stereo not shown) [C-19393S2 disodium salt] the MIC (Escherichia coli NIHJ) was 12.5 to 25 µg/mL, the MIC [4] was 12.5 µg/mL and the MIC [5] was 12.5 µg/mL. It also gave an MIC [6] of 100 µg/mL, an MIC [7] of 50 µg/mL and an MIC [8] of 25 µg/mL. The MIC [9] was 50 µg/mL, the MIC [10] was greater than 100 µg/mL and the MIC [11] was 6.25 µg/mL. For the same compound, the MIC [12] was 12.5 µg/mL, the MIC (Sarcina lutea IFO 3232) was 12.5 µg/mL and the MIC [13] was 12.5 µg/mL. The MIC (Bacillus cereus IFO 3460) was greater than 100 µg/mL, the Solubility (Solubility; acetic acid) was “soluble” and the Solubility (Solubility; acetone) was “Insoluble”. The Solubility (Solubility; butanol) was “sparingly soluble”, the Solubility (Solubility; chloroform) was “Insoluble” and the Solubility (Solubility; dimethyl sulfoxide) was “soluble”. The Solubility (Solubility; ethanol) was “sparingly soluble”, the Solubility (Solubility; ethyl acetate) was “Insoluble” and the Solubility (Solubility; methanol) was “soluble”. For the same compound, the Solubility (Solubility; pyridine) was “sparingly soluble” and the Solubility (Solubility; water) was “readily soluble”.
Work on `CN(C)CCn1nnnc1SCC1=C(C(=O)O)N2C(=O)[C@@H](NC(=O)Cc3csc(N)n3)[C@H]2SC1` [Cefotiam] yielded an MIC (Escherichia coli TN 659; [15]) of 0.2 µg/mL (≈ 0.38 µM), an MIC (Escherichia coli TN 659; [16]) of 0.1 µg/mL (≈ 0.19 µM) and an MIC (Escherichia coli TN 659; [17]) of 0.006 µg/mL (≈ 0.0114 µM). The MIC [1, 18] was 200 µg/mL (≈ 380 µM), the MIC [1, 19] was 0.2 µg/mL (≈ 0.38 µM) and the MIC [1, 20] was 0.02 µg/mL (≈ 0.038 µM). For the same compound, the MIC (Proteus vulgaris TN 224; [21]) was 200 µg/mL (≈ 380 µM), the MIC (Proteus vulgaris TN 224; [22]) was 0.2 µg/mL (≈ 0.38 µM) and the MIC (Proteus vulgaris TN 224; [23]) was 0.2 µg/mL (≈ 0.38 µM).
For `CC(=O)N/C=C/[S+]([O-])C1=C(C(=O)O)N2C(=O)C(C(C)OS(=O)(=O)O)C2C1` (stereo not shown) [MC 696-SY2-A], the Stability [14] is given as “very unstable”.
